# From patent US7235563B2, “Spirocyclic compounds useful as modulators of nuclear hormone receptor function” (Bristol-Myers Squibb Company, priority 2004, dated 2007)
# Where two headings read alike, the source gives them in different places.
# Assays:
# AR [1] = target: T1, AR (Rattus norvegicus, UniProt P15207)
# T1 sequence (P15207 1-902): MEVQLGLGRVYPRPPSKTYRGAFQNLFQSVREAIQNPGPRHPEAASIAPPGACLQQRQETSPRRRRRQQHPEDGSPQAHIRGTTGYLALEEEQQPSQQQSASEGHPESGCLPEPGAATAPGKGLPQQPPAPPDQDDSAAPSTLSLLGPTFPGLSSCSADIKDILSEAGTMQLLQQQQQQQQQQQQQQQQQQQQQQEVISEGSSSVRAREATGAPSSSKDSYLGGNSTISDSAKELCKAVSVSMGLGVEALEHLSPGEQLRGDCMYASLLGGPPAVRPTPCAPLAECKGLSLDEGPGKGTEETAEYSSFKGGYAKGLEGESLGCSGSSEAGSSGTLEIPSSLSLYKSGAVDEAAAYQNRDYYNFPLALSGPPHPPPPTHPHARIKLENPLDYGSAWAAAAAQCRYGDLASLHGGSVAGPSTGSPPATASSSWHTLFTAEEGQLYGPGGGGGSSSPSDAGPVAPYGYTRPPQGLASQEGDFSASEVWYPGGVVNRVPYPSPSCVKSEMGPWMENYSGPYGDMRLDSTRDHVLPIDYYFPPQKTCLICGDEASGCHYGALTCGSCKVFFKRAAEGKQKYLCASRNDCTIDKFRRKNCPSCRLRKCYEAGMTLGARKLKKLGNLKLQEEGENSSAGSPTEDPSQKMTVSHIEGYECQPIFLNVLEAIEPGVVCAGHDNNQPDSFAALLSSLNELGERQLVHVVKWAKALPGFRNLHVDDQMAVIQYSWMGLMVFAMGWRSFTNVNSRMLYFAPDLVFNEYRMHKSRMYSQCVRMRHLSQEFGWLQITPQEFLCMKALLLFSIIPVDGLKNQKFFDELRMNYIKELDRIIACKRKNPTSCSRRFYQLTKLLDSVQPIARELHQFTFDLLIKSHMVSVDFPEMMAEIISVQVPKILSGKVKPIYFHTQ
# AR [2] = target: T1, AR; remark: listed apart in the source
# Excerpt: The basis of this assay lies in the well-defined action of androgenic agents on the maintenance and growth of muscle tissues and sexual accessory organs in animals and man. […] J. Anat. […] I. Quantitative data” Boll.-Soc. Ital. Biol. Sper. […] II. Electron-microscopic observations” Boll.-Soc. Ital. Biol. Sper. […] Castration results in rapid involution and atrophy of the prostate and seminal vesicles. This effect can be reversed by exogenous addition of androgens. Since both the levator ani muscle and the male sex organs are the tissues most responsive to the effects of androgenic agents, this model is used to determine the androgen dependent reversal of atrophy in the levator ani muscle and the sex accessory organs in immature castrated rats. […] Control vehicle • 2.
# The gain and loss of sexual organ weight reflect the changes of the cell number (DNA content) and cell mass (protein content), depending upon the serum androgen concentration. […] Therefore, measurement of organ wet weight is sufficient to indicate the bioactivity of androgens and androgen antagonist.
# glucocorticoid receptor = glucocorticoid receptor (Homo sapiens, UniProt P04150); conditions: concentration of ≦10 μM; 10 ng/ml PMA; A549 cells
# glucocorticoid receptor, sequence (P04150 whole entry): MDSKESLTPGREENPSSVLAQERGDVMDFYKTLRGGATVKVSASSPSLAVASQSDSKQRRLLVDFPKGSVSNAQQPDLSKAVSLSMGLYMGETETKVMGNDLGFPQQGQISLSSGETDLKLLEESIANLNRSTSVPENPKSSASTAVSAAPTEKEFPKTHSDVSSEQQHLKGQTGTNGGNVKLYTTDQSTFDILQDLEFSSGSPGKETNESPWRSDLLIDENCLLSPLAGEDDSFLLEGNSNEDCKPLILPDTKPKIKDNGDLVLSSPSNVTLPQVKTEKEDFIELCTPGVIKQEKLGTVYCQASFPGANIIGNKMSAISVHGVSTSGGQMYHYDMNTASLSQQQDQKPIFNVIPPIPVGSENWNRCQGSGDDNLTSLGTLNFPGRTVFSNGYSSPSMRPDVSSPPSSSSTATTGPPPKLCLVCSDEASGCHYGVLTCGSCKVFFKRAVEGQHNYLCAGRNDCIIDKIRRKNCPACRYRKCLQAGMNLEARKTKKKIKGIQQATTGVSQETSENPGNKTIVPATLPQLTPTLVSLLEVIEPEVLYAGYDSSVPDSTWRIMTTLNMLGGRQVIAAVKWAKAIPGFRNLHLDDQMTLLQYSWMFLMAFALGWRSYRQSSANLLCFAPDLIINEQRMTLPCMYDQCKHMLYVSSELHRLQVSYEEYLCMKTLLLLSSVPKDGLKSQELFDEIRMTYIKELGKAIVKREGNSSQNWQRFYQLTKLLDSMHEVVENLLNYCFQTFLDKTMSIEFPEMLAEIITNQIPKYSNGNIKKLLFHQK
# Experimental: Cells are plated the day before the assay at approximately 40000 cells/well. […] Activity is measured by analysis in a luminometer as compared to control experiments treated with buffer or dexamethasome.
# [3] = system: wild type AR (MDA 453 cells); conditions: read-out: Kd for [3H]-DHT, Scatchard analysis
# Experimental: For the saturation analysis, the difference between the total binding and the non-specific binding, is defined as specific binding.
# [formula] After correcting for non-specific binding, IC50 values are determined. […]
compound,measurement,setting,value
"CCC(=O)O[C@H]1CC[C@H]2[C@@H]3CCC4=CC(=O)CC[C@]4(C)[C@H]3CC[C@]12C [TP, testosterone propionate]",potency relative to free T,AR [1]; TP versus free T,10-30 fold
same,ED80,AR [1]; immature castrated rat model,0.1 mg
same,EC50 (increase in organ weight),"AR [1]; immature castrated rats, dosing for 3 days",~0.03 mg
same,potency relative to free T,AR [2]; TP versus free T,10-30 fold
same,EC50 (increase in organ weight),"AR [2]; castrated rats, dosing for 3 days",~0.03 mg
C[C@@H]1C[C@H]2[C@@H]3CCC4=CC(=O)C=C[C@]4(C)[C@@]3(F)[C@@H](O)C[C@]2(C)[C@@]1(O)C(=O)CO [dexamethasone],suppression of activity (% inhibition of the reporter system vs buffer control with PMA),glucocorticoid receptor,65%
tritiated dihydrotestosterone [[^3H]-DHT],Kd,[3],0.7 nM
